Converted amounts (≈) assume the structure as drawn.

Here are results for 18 molecules from patent EP0335545B2, “Pharmaceutical formulations for parenteral use” (UNIVERSITY OF FLORIDA, priority 1988, dated 1989).

Data set [1] is described as follows: Solubilizing effect of a 50% w/w solution of HPCD on steroids and CDS. The following applies: 50% w/w aqueous hpcd. The protocol:
An excess of E2-CDS was sonicated with an aqueous solution of the appropriate solubilizing agent for 30 minutes. The suspension was then centrifuged, filtered through 0.45 µm polyvinylidene difluoride (Millex-HV4, Millipore®) membranes and analyzed by HPLC. […] An estimation of the bulk equilibrium constant was obtained by correlating the millimolarity of E2-CDS solubilized and the millimolarity of the cyclodextrin added. This latter value was calculated using the average molecular weight of the isomeric mixture determined by mass spectroscopy. The solubilizing effect of a 50% w/w solution of HPCD was also examined for a series of steroids and dihydropyridines (CDS). These studies were carried out in a similar manner to those previously described.
For the CDS, the wavelength monitored was 360 nm while for estrogen 220 nm was used.
Separation was achieved on an Analytical Sciences, Inc. (ASI) 10 µm particle size, C18 reversed phase 30 cm x 3.9 mm i.d. analytical column. The flow rate was 1 mL/min, the compounds were detected at 360 nm and in all determinations the temperature was ambient. […] For the GABA-CDS1, a mobile phase consisting of 50:1:1:48 of the same components was required. […] Other compounds were assayed spectrophotometrically.

Data set [2] is described as follows: Preparation of solid freeze-dried HPCD complexes: degree of incorporation. It counts as physicochemical. As to conditions: freeze-dried complex from 50% w/w HPCD (ASDS 5.1). The protocol:
An excess of E2-CDS was added and the solution then was purged with helium. The resulting suspension was then sonicated for 30 minutes, filtered through a glass filter (ASTM 10-15M, Pyrex No. 36060) and freeze-dried overnight. Best results were obtained by hard-freezing the aqueous solution of the E2-CDS/HPCD complex for at least 10 hours before lyophilization. The degree of complex formation was determined by dissolving a small amount of the dry complex in methanol and then analyzing by high pressure liquid chromatography (HPLC).
An excess of E2-CDS or other CDS was added to a 50% w/w solution of HPCD. The suspension was sonicated for 30 minutes, filtered through 0.45 µm PVDF membranes and freeze-dried. The degree of incorporation was determined either spectrophotometrically or by HPLC. In some cases, the effect of solubilizing agents on the degree of incorporation was examined. This involved adding small amounts of polyoxyethylene 20 cetyl ether (Brij), polyoxyethylene sorbitan monooleate (Tween 80) or ethanol to the aqueous solution prior to lyophilization.
The retention time was 5.2 min. Other compounds were assayed spectrophotometrically.
The solution was degassed and the suspension was sonicated for 30 minutes, after which it was filtered and the filtrate was lyophilized. The dried filtrate contained 65.6 mg testosterone propionate or 29.6 mg T-CDS1 per gram of cyclodextrin complex. Compounds were analyzed for decomposition by thin-layer chromatography and ultraviolet absorption.

Data set [3] is described as follows: physchem. On the procedure: For comparison, the solubilities of the drugs in water were also determined.
• Wavelength: 245 nm • Column: Waters µBondapak CN, 3.9 mm (id.) x 30 cm • Mobile phase: acetonitrile, acetic acid, water (60:1:39) containing 0.1% 1-hexasulfonic acid, sodium salt • Flow rate: 2.00 mL/min.
• Wavelength: 263 nm • Column: ASI C18, 10 µm, 3.9 mm (i.d.) x 30 cm • Mobile phase: acetonitrile, water (55:45) • Flow rate: 1.00 mL/min.
• Wavelength: 241 nm • Column: Waters µBondapak CN, 3.9 mm (i.d.) x 30 cm • Mobile phase: acetonitrile, water (6:4) • Flow rate: 2.00 mL/min.
• Wavelength: 280 nm • Column: ASI C18, 10 µm, 3.9 mm (i.d.) x 30 cm • Mobile phase: acetonitrile, water (55:45) • Flow rate: 2.00 mL/min.
• Wavelength: 248 nm • Column: Fisher Resolvex C18, 4.6 mm (i.d.) x 25 cm • Mobile phase: acetonitrile, water (6:4) • Flow rate: 1.50 mL/min.
• Wavelength: 248 nm • Column: Fisher Resolvex C18, 4.6 mm (i.d.) x 25 cm • Mobile phase: acetonitrile, water (7:3) • Flow rate: 2.00 mL/min.
• Wavelength: 253 nm • Column: Waters µBondapak CN, 3.9 mm (i.d.) x 30 cm • Mobile phase: acetonitrile, […], water (60:1:39) containing 0.1% 1-hexanesulfonic acid, sodium salt • Flow rate: 2.00 mL/min.
• Wavelength 308 nm • Column: Fisher Resolvex C18, 4.6 mm (i.d.) x 25 cm • Mobile phase: methanol, acetic acid, water (50:1:49) containing 0.1% 1-octanesulfonic acid, sodium salt • Flow rate: 2.00 mL/min.
• Wavelength: 240 nm • Column: Fisher Resolvex C18, 4.6 mm (i.d.) x 25 cm • Mobile phase: acetonitrile, water (6:4) • Flow rate: 1.50 mL/min.
• Wavelength: 240 nm • Column: Fisher Resolvex C18, 4.6 mm (i.d.) x 25 cm Mobile phase: acetonitrile, water (7:3) • Flow rate: 2.00 mL/min.
• Wavelength: 241 nm • Column: Fisher Resolvex C18, 4.6 mm (i.d.) x 25 cm • Mobile phase: acetonitrile, water (7:3) • Flow rate: 2.00 mL/min.
• Wavelength: 230 nm • Column: Waters µBondapak CN, 3.9 mm (i.d.) x 30 cm • Mobile phase: acetonitrile, water (35:65) • Flow rate: 2.00 mL/min.
• Wavelength: 258 nm • Column: Fisher Resolvex C18, 4.6 mm (i.d.) x 25 cm • Mobile phase: acetonitrile, water (55:45) • Flow rate: 2.00 mL/min.
• Wavelength: 325 nm • Column: Waters µBondapak C18, 10 µm, 3.9 mm (i.d.) x 30 cm • Mobile phase: acetonitrile, water (55:45) • Flow rate: 1.00 mL/min.

The nature of data set [4]: Phase-solubility experiments in aqueous HPCD at 30.0±0.2°C (chlorambucil, lomustine, melphalan).
Protocol: After equilibration in a 30.0±0.2°C water bath in the dark for up to 72 hours, aliquots of the mixtures were filtered through 0.45 Mm membrane filters, diluted and the drug concentration determined by HPLC or UV methods.
The nature of data set [5]: Maximum concentrations of selected CDS in varying concentrations of selected cyclodextrins. Format: physicochemical. On the procedure:
In further testing, maximum concentrations of selected CDS in varying concentrations of selected cyclodextrins were determined. The concentration of E2-CDS (mg/mL) was as follows: […]

With `C[C@]12CC[C@H]3[C@@H](CCC4=CC(=O)CC[C@@]43C)[C@@H]1CC[C@@H]2O` [Testosterone], the concentration in solution in data set [1] (solubility) came to 38000 µg/mL (≈ 132 mM).

For the molecule “1-methyl-3-{[2-(9-guanylmethoxy)ethoxy]carbonyl}-1,4-dihydropyridine [ACV-CDS]”, in data set [2], the “Amount of Drug in Dry Complex” value was found to be 25 mg/g.

As for `CC1=C(/C=C/C(C)=C/C=C/C(C)=C/CO)C(C)(C)CCC1` [All-trans-Retinol], the “Increase in Solubility (HPCD/water)” value in data set [3] is given as “∼4,600”. In addition, the solubility in data set [3] (50% w/w hpcd) worked out at 4600 µg/mL (≈ 16.1 mM); in data set [3] (water), 1 µg/mL (≈ 0.00349 mM).

Turning to `O=C1NC(=O)C(c2ccccc2)(c2ccccc2)N1` [Phenytoin], the “Increase in Solubility (HPCD/water)” value in data set [3] is listed as “∼450”. The figures for the solubility in data set [3] (50% w/w hpcd) and in data set [3] (water) were 9300 µg/mL (≈ 36.9 mM) and 20 µg/mL (≈ 0.0793 mM), respectively.

Consider `C#C[C@]1(O)CC[C@H]2[C@@H]3CCc4cc(O)ccc4[C@H]3CC[C@@]21C` [17 α-Ethynylestradiol], for which the solubility came to 34500 µg/mL (≈ 116 mM) in data set [3] (25% w/v hpcd), 68200 µg/mL (≈ 230 mM) in data set [3] (50% w/w hpcd) and 8 µg/mL (≈ 0.027 mM) in data set [3] (water).

Take `CCC(=O)O[C@H]1CC[C@H]2[C@@H]3CCC4=CC(=O)CC[C@]4(C)[C@H]3CC[C@]12C` [Testosterone 17-Propionate]: the “Amount of Drug in Dry Complex” value in data set [2] is listed as 65.6 mg/g. The same molecule returned a solubility in data set [1] of 38000 µg/mL (≈ 110 mM).

Consider `C#C[C@]1(O)CC[C@H]2[C@@H]3CCc4cc(OC)ccc4[C@H]3CC[C@@]21C` [Ethynylestradiol 3-methyl ether], for which the “Increase in Solubility (HPCD/water)” value in data set [3] was “∼13,000”. Moreover, the values for the solubility in data set [3] (25% w/v hpcd), in data set [3] (50% w/w hpcd) and in data set [3] (water) were 7130 µg/mL (≈ 23 mM), 13300 µg/mL (≈ 42.8 mM) and 1 µg/mL (≈ 0.00322 mM), respectively.

As to `CN1CCN=C(c2ccccc2)c2cc(Cl)ccc21` [Medazepam], the solubility in data set [3] (50% w/w hpcd, pH 7.5) is 8300 µg/mL (≈ 30.7 mM); in data set [3] (water), 10 µg/mL (≈ 0.0369 mM).

As for `CN(Cc1cnc2nc(N)nc(N)c2n1)c1ccc(C(=O)N[C@@H](CCC(=O)O)C(=O)O)cc1` [Methotrexate], the solubility was determined as 10000 µg/mL (≈ 22 mM) in data set [3] (50% w/w hpcd, pH 7.6) and 45 µg/mL (≈ 0.099 mM) in data set [3] (water).

As to `O=NN(CCCl)C(=O)NC1CCCCC1` [Lomustine], the solubility in data set [4] (1% w/w aqueous hpcd) amounted to 380 µg/mL (≈ 1.63 mM); in data set [4] (5% w/w aqueous hpcd) it was 1680 µg/mL (≈ 7.19 mM); in data set [4] (10% w/w aqueous hpcd), 3330 µg/mL (≈ 14.2 mM); in data set [4] (15% w/w aqueous hpcd) it was 6260 µg/mL (≈ 26.8 mM); in data set [4] (20% w/v aqueous hpcd), 8440 µg/mL (≈ 36.1 mM); in data set [4] (20% w/w aqueous hpcd), 8440 µg/mL (≈ 36.1 mM). Moreover, the solubility is 8900 µg/mL (≈ 38.1 mM) in data set [4] (25% w/v aqueous hpcd), 8900 µg/mL (≈ 38.1 mM) in data set [4] (25% w/w aqueous hpcd), 180 µg/mL (≈ 0.77 mM) in data set [4] (water) and 180 µg/mL (≈ 0.77 mM) in data set [4] (water (0% hpcd)). Also, in data set [4] (25% HPCD versus water), the “increase: water/25% HPCD” value came to 49.44. The solubility at 4 h in data set [4] (50% w/w aqueous hpcd) was approximately 12000 µg/mL (≈ 51.3 mM). Besides, the “degradation during the solubility experiments” value in data set [4] (aqueous HPCD, 30°) is listed as “Some degradation occurred”.

As to “1-methyl-3-N-[3-(benzyloxycarbonyl)propyl]-carbamoyl-1,4-dihydropyridine [GABA-CDS1]”, the “Amount of Drug in Dry Complex” value in data set [2] came out at 160 mg/g.

In the case of `C[C@@H]1C[C@H]2[C@@H]3CCC4=CC(=O)C=C[C@]4(C)[C@@]3(F)[C@@H](O)C[C@]2(C)[C@@]1(O)C(=O)CO` [Dexamethasone], the solubility came to 24200 µg/mL (≈ 61.6 mM) in data set [3] (25% w/v hpcd), 44300 µg/mL (≈ 113 mM) in data set [3] (50% w/w hpcd) and 8 µg/mL (≈ 0.0204 mM) in data set [3] (water).

On to Estradiol 17-Valerate, for which, in data set [2], the “Amount of Drug in Dry Complex” value amounted to 23.5 mg/g.

Consider `CN1C=CCC(C(=O)NCCc2ccc(OC(=O)C(C)(C)C)c(OC(=O)C(C)(C)C)c2)=C1` [DA-CDS, 1-methyl-3-{{N-{β-[3,4-bis-(pivalyloxy)phenyl]ethyl}-carbamoyl}}-1,4-dihydropyridine], for which the “Amount of Drug in Dry Complex” value in data set [2] was found to be 27 mg/g. This molecule also returned a solubility in data set [1] of 16000 µg/mL (≈ 36.2 mM).

For “17β-{[(1-methyl-1,4-dihydropyridin-3-yl)carbonyl]oxy}-19-norpregn-4-en-20-yn-3-one [norethindrone-CDS]”, in data set [2], the “Amount of Drug in Dry Complex” value is 0.6 mg/g. Further, the “concentration of the norethindrone-CDS” value in data set [5] (40% hpcd) was found to be 7.13 mg/g; in data set [5] (40% hpgcd) it was 15.9 mg/g.

For the molecule `C#C[C@]1(OC(C)=O)CC[C@H]2[C@@H]3CCC4=CC(=O)CC[C@@H]4[C@H]3CC[C@@]21C` [Norethindrone acetate], the “Increase in Solubility (HPCD/water)” value in data set [3] is recorded as “∼97,500”. Further, the solubility in data set [3] (25% w/v hpcd) was 9410 µg/mL; in data set [3] (50% w/w hpcd) it was 19500 µg/mL; in data set [3] (water), 0.2 µg/mL.

In data set [1], `COc1ccc2c(c1)CC[C@@H]1[C@@H]2CC[C@]2(C)[C@@H](O)CC[C@@H]12` [Estradiol 3-Methyl Ether] came in with a solubility of 30000 µg/mL (≈ 105 mM).

On to `C[C@]12CC[C@@H]3c4ccc(O)cc4CC[C@H]3[C@@H]1C[C@@H](O)[C@@H]2O` [Estriol], for which the concentration in solution in data set [1] (solubility) came to 40000 µg/mL (≈ 139 mM).
